Values quoted from earlier work, collected in patent US10328004B2, “Sunscreen cosmetic” (SHISEIDO COMPANY, LTD., priority 2015, dated 2019).

Conditions: UVB wavelength range

maximum absorption wavelength: 312 nm
Structure (SMILES): CCCCC(CC)COC(=O)c1ccc(Nc2nc(Nc3ccc(C(=O)OCC(CC)CCCC)cc3)nc(Nc3ccc(C(=O)OCC(CC)CCCC)cc3)n2)cc1 (stereo not shown) [Ethylhexyl triazone]
